Laboratory results: patent US10632081B2, “Intralymphatic delivery of hyaluronan nanoparticle for cancer metastasis” (priority 2015, dated 2020)

Key:
[1] = Lymphatic delivery of PtHC604 by subcutaneous injection in normal rats; format: in vivo, SD rats; conditions: sc mammary fat pad, 1 mg Pt/kg
Method: To evaluate the lymphatic delivery, SD rats were placed under isoflurane anesthesia and injected subcutaneously into the right mammary fat pad with PtHC604, PtHC16001 or oxaliplatin (1 mg Pt/kg). […] Right axillary lymph nodes, sciatic nerves and plasma were harvested and stored at −80° C. until analysis. Platinum concentrations in lymph nodes and sciatic nerves were analyzed by ICP-MS. Platinum concentration in plasma was analyzed by ICP-OES.

B16-F10-luc2 cells = test: In vitro cytotoxicity assay (MTT); format: cell-based, Murine; conditions: 48 h treatment
Method: B16-F10-luc2 cells were cultured in RPMI1640 medium supplemented with 10% heat-inactivated fetal bovine serum and maintained in a humidified 37° C., 5% CO2 incubator. B16-F10-luc2 cells were seeded on 96-well plate for 2×10^3 cells per well and incubated overnight at 37° C. Cells were treated with phosphate-buffered saline (PBS), oxaliplatin, or PtHC604 for 48 hours at 37° C. Cell viability was determined by MTT assay.

[2] = Residual drug in injection site evaluation; conditions: 1 mg Pt/kg
Method: After 4, 24, 48, and 96 hours post-injection, animals were euthanized by CO2. Each foot was harvested and stored at −80° C. until analysis. Platinum concentration in each foot was analyzed by ICP-MS.

[3] = Local toxicity assessment (Primary Dermal Irritation Index); format: in vivo, BALB/c mice; conditions: sc foot pad
Method: Mice were weighted and grouped into (1) vehicle; (2) 0.3 mg Pt/kg oxaliplatin; (3) 1 mg Pt/kg oxaliplatin; (4) 3 mg Pt/kg Oxaliplatin; (5) 0.3 mg Pt/kg PtHC604; (6) 1 mg Pt/kg PtHC604; (7) 3 mg Pt/kg PtHC604, n=6/group. Each animal was treated once weekly for 4 weeks. The skin toxicities in the injection site were measured by erythema and oedema grading (Table 1). The skin toxicities potential was evaluated using Primary Dermal Irritation Index (PDII) by combining erythema and oedema grading, and classified into non-irritant, negligible-irritant, mild irritant, moderate irritant, and severe irritant (Table 2).

B16-F10-luc2 = test: Survival rate and anti-lymphatic metastasis in spontaneous lymphatic metastasis model of B16-F10-luc2; format: in vivo, C57BL/6 mice; conditions: for volume of popliteal lymph node (mean±SEM): 3 mg Pt/kg twice a week for 2 weeks
Description: Prior inoculation of the cells, B16-F10-luc2 cells were harvested during the exponential growth period and washed twice with sterile PBS, and then suspended in PBS with 50% Matrigel (BD Biosciences). Respective 3×10^5 B16-F10-luc2 cells were implanted subcutaneously into the right hind foot pad of female C57BL/6 mice (6 to 8 weeks old). B16-F10-luc2 tumors were allowed to grow for 5 weeks, and the tumor cells spontaneously metastasized to regional popliteal lymph node. Lymphatic metastasis was confirmed by bioluminescence imagine using IVIS spectrum. Oxaliplatin was administered by intravenous or subcutaneous injection at the dose of 3 mg Pt/kg, and PtHC604 was administered by subcutaneous injection into the footpad at the same dose of 3 mg Pt/kg. All test articles were administrated twice a week for 2 weeks (n=6-8/group in one independent experiment). Tumor size was measured by calipers and converted into tumor volume using the following formula: V=LS^2/2 (where L is the longest diameter and S is the shortest diameter). Death was defined when mice dead or tumor volumes were >3000 mm^3. At the end of study, mice were sacrificed and the popliteal lymph node was collected for measurement. The volume of lymph node was measured by the same formula above: V=LS^2/2.

[4] = Lymphatic delivery of PtHC604 by different injection routes; format: in vivo, Sprague Dawley (SD) rats; conditions: iv, 9 mg Pt/kg, right axillary lymph node Pt
Method: […] […] […] Right axillary lymph nodes were harvested and stored at −80° C. until analysis. Platinum concentration in lymph nodes was analyzed by ICP-MS (THERMO XSERIES II).

SAS-LN = test: Anti-lymphatic metastasis in spontaneous lymphatic metastasis model of SAS-LN; format: in vivo, BALB/c nude mice; conditions: iv, 3 mg Pt/kg, qw for 5 weeks, cervical lymph nodes by IVIS
Method: SAS-LN cells transfected with luciferase were suspended in PBS and were orthotropic implanted (2×10^5 cells per mouse) into the tongue of female BALB/c nude mice (6 to 8 weeks old). SAS-LN tumors were allowed to grow for 1 week. Cisplatin was administered by intravenous injection at dose of 3 mg Pt/kg, and CPHC008 was administered by subcutaneous injection into the buccal site at dose of 3 mg Pt/kg (n=10/group). All test articles were administrated once a week for 5 weeks. After sacrifice, cervical lymph nodes were collected to evaluate metastasis by bioluminescence imagine using IVIS.

[5] = 0.3 mg Pt/kg once weekly for 4 weeks
[6] = 1 mg Pt/kg once weekly for 4 weeks
[7] = 3 mg Pt/kg once weekly for 4 weeks

| SMILES | AUC (96 h) (h * ug/g) Lymph node ([1]; axillary lymph node Pt) [µg·h/g] | AUC (96 h) (h * ug/g) Plasma ([1]; plasma Pt) [µg·h/g] | AUC (96 h) (h * ug/g) Sciatic nerve ([1]; sciatic nerve Pt) [µg·h/g] | IC50 (B16-F10-luc2 cells) [µM] | residual Pt detected in the foot ([2]; 24 hour after sc footpad injection) [%] | Pt exposure in the foot ([2]; sc footpad injection, up to 96 hours) [µg·h/mL] | Classification of dermal irritation [3, 5] | Dermal irritation index [3, 5] | Classification of dermal irritation [3, 6] | Dermal irritation index [3, 6] | Classification of dermal irritation [3, 7] | Dermal irritation index [3, 7] | Classification of dermal irritation ([3]; 3 mg Pt/kg once weekly for 4 weeks, listed as oxaliplatin) | volume of popliteal lymph node (mean±SEM) (B16-F10-luc2; intravenous injection) [mm^3] | Median survival days (B16-F10-luc2; iv, 3 mg Pt/kg, biw, mice bearing metastatic melanoma) [days] | volume of popliteal lymph node (mean±SEM) (B16-F10-luc2; subcutaneous injection) [mm^3] | Lymphatic AUC0-96 h [4] [µg·h/g] | Lymphatic metastasis (metastatic ratio) (SAS-LN) [%] | Lymphatic metastasis (metastatic ratio) (SAS-LN; listed as cisplatin) [%] |
| --- | --- | --- | --- | --- | --- | --- | --- | --- | --- | --- | --- | --- | --- | --- | --- | --- | --- | --- | --- |
| O=C1[O][Pt]2([NH][C@@H]3CCCC[C@H]3[NH]2)[O]C1=O [Oxaliplatin, oxaliplatin] | 66.0 | 6.7 | 12.0 | 0.65 | 29 | 4089 | Non-irritation | 0 | Mild irritation | 0.5 | Severe irritation | 4.8 | Severe skin toxicities | 72.7±46.2 | 7 | 129.2±103.9 | 468.7 | – | – |
| N.N.[Cl][Pt][Cl] [Cisplatin] | – | – | – | – | – | – | – | – | – | – | – | – | – | – | – | – | – | 78 | 78 |
